Where two headings read alike, the source gives them in different places.

One test relates to MCF-7 (ER+) cells. Briefly: Antiproliferative assay, MCF-7. The settings on record: for IC50: read-out: MCF-7 IC50. The class given is cell-based.
A further test relates to MDA-MB-231 (ER-) cells. Briefly: Antiproliferative assay, MDA-MB-231. The format is cell-based.
Test [1] has as its target T1, Recombinant Human Aromatase (HA) (Homo sapiens, UniProt P11511).
T1 sequence (P11511 1-503): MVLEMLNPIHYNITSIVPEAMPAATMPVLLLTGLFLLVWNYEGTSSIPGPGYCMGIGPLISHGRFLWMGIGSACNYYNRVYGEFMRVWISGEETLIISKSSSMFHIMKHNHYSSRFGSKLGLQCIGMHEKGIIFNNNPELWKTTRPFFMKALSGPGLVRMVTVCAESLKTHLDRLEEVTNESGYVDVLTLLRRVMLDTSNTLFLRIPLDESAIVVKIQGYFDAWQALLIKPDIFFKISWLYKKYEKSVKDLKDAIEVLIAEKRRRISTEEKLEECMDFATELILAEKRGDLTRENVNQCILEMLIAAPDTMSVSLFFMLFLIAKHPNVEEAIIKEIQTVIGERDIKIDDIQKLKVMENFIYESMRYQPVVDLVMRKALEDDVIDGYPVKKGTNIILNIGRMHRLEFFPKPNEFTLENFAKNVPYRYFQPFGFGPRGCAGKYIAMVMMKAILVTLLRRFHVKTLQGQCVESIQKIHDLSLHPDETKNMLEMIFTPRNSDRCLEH
Briefly: HA inhibition assay (Aromatase Inhibitor Screening Kit, fluorogenic substrate). The format is biochemical. The settings on record: for Ki: values inside parenthesis, unit inferred, read-out: HA (Ki), inhibition constant (converted).

The mark [2] stands for this setting: Homo sapiens, MDA-MB-231, 72 h, read-out: MDA-MB-231 IC50.
The mark [3] stands for this setting: tested at 200-0.1 µM, triplicate, read-out: HA IC50.
The mark [4] stands for this setting: Homo sapiens, MCF7, 72 h, 72 h, with 10 µM testosterone undecanoate.
Setting [5] is: Homo sapiens, MDA-MB-231, 72 h, 72 h; read-out: MDA-MB-231 IC50.
Setting [6] is: kinetic experiments at varied substrate concentration.

Regarding `O=c1cc(-c2ccc(O)cc2)oc2cc(O)cc(O)c12` [Apigenin], the IC50 – broadly, the concentration needed to halve the response being measured – amounted to 13.6 ± 3.5 µM in the test on MCF-7 (ER+) cells (Homo sapiens, MCF7, 72 h) and 60 ± 1.6 µM with MDA-MB-231 (ER-) cells (setting [2]).

Take `CC1=CC(=O)CC(C)(C)[C@@]1(O)/C=C/C(C)=C\C(=O)O` [Abscisic acid]: in the test with MCF-7 (ER+) cells, the “Activity against MCF-7 (in words)” value is “inactive”. Also, the IC50 was > 100 µM in the test on MCF-7 (ER+) cells (Homo sapiens, MCF7, 72 h); > 100 µM in the test with MDA-MB-231 (ER-) cells (setting [2]); > 100 µM in test [1] (setting [3]). The “Activity against MDA-MB-231 (in words)” value with MDA-MB-231 (ER-) cells is “inactive”. Moreover, the “HA inhibitory activity (in words)” value in test [1] is “inactive”.

As to `Cc1coc2c1C(=O)C(=O)c1c-2ccc2c1CCCC2(C)C` [Tanshinone IIA], the IC50 in the test on MCF-7 (ER+) cells (72 h, with 10 µM testosterone undecanoate) was 1.4 ± 1.3 µM; with MCF-7 (ER+) cells (setting [4]), ~2.1 µM; in the test with MDA-MB-231 (ER-) cells (72 h; read-out: MDA-MB-231 IC50), 3.7 ± 1.7 µM; in the test with MDA-MB-231 (ER-) cells (setting [5]) it was ~2.1 µM; in test [1] (setting [3]) it was 42.5 ± 1.2 µM. Moreover, the Mode of inhibition entry in test [1] (setting [6]) is recorded as “Non-competitive”. Further, the Ki (usually the equilibrium dissociation constant of an inhibitor or competing ligand from its target) in test [1] is 40.9 µM.

Turning to `Oc1ccc(/C=C/c2cc(O)cc(O)c2)cc1` [Resveratrol], the IC50 with MCF-7 (ER+) cells (setting [4]) is 11 ± 2.2 µM; in the test with MDA-MB-231 (ER-) cells (setting [5]), 38 ± 3.5 µM.

For `COc1ccc(-c2cc(=O)c3c(OC)c(OC)c(OC)c(OC)c3o2)cc1` [Tangeretin], the IC50 was 30.3 ± 2.1 µM in the test with MCF-7 (ER+) cells (setting [4]), 45.6 ± 3.8 µM with MDA-MB-231 (ER-) cells (setting [5]) and > 100 µM in test [1] (setting [3]). Also, in test [1], the “HA inhibitory activity (in words)” value is “inactive”.

In the case of `C[C@@H]1O[C@@H](OC[C@H]2O[C@@H](Oc3c(-c4ccc(O)c(O)c4)oc4cc(O)cc(O)c4c3=O)[C@H](O)[C@@H](O)[C@@H]2O)[C@H](O)[C@H](O)[C@H]1O` [Rutin], the “Activity against MCF-7 (in words)” value in the test on MCF-7 (ER+) cells is “inactive”. Also, the IC50 (in the test on MCF-7 (ER+) cells (setting [4]); with MDA-MB-231 (ER-) cells (setting [5]); in test [1] (setting [3])) was > 100 µM in each case. The “Activity against MDA-MB-231 (in words)” value in the test on MDA-MB-231 (ER-) cells was “inactive”. In addition, the “HA inhibitory activity (in words)” value in test [1] is “inactive”.

Turning to `C=C(C)[C@@H]1CC[C@]2(CO)CC[C@]3(C)[C@H](CC[C@@H]4[C@@]5(C)CC[C@H](O)C(C)(C)[C@@H]5CC[C@]43C)[C@@H]12` [Betulin], the “Activity against MCF-7 (in words)” value in the test with MCF-7 (ER+) cells is “very weak inhibitory activity”. Further, in the test on MCF-7 (ER+) cells (Homo sapiens, MCF7, 72 h), the IC50 worked out at 67 ± 2.6 µM. In addition, the “Activity against MDA-MB-231 (in words)” value with MDA-MB-231 (ER-) cells is given as “very weak inhibitory activity”. In addition, the IC50 with MDA-MB-231 (ER-) cells (Homo sapiens, MDA-MB-231, 72 h; read-out: MDA-MB-231 IC50) was > 100 µM. Further, in test [1], the “HA inhibitory activity (in words)” value is “very weak inhibitory activity”, the IC50 was 95.3 µM and the Mode of inhibition entry is listed as “Non-competitive”.

Consider `COc1ccc2cc3[n+](cc2c1OC)CCc1cc2c(cc1-3)OCO2` [Berberine], for which the values for the 50% inhibitory concentration (IC50) (in the test with MCF-7 (ER+) cells (setting [4]); in the test with MDA-MB-231 (ER-) cells (setting [5]); in test [1] (setting [3])) were 10.2 ± 2.6 µM, > 100 µM and 21.4 ± 0.9 µM, respectively. Besides, the Mode of inhibition entry in test [1] (setting [6]) is reported as “Non-competitive”; in test [1] (kinetic experiments at varied substrate concentration, listed as berberine), “non-competitive inhibition”. In test [1], the Ki is 20.1 µM.

`CC(C)=CCc1c2c(c3occ(-c4ccc(O)c(O)c4)c(=O)c3c1O)C=CC(C)(C)O2` [Pomiferin]: the IC50 in the test with MCF-7 (ER+) cells (setting [4]) turned out to be 5.4 ± 2.2 µM; in the test with MDA-MB-231 (ER-) cells (setting [5]), 30.9 ± 3.1 µM; in test [1] (setting [3]), 15.1 ± 0.5 µM. The Mode of inhibition result is recorded as “Non-competitive” in test [1] (setting [6]) and “non-competitive inhibition” in test [1] (kinetic experiments at varied substrate concentration, listed as pomiferin). Besides, the Ki in test [1] is 14.8 µM.

In the case of `O=c1cc(-c2ccccc2)oc2cc(O)cc(O)c12` [Chrysin], the IC50 is 7.8 ± 2.8 µM in the test with MCF-7 (ER+) cells (setting [4]) and 65 ± 2.3 µM in the test with MDA-MB-231 (ER-) cells (setting [5]).

As for `N#Cc1ccc(C(c2ccc(C#N)cc2)n2cncn2)cc1` [Letrozole, reference compound], the figures for the IC50 in the test on MCF-7 (ER+) cells (setting [4]) and in the test on MDA-MB-231 (ER-) cells (setting [5]) were 5.6 ± 1.1 µM and 41.3 ± 2.1 µM, respectively.

These data come from paper PMC8759730, “Targeting allosteric sites of human aromatase: a comprehensive in-silico and in-vitro workflow to find potential plant-based anti-breast cancer therapeutics” (Journal of Enzyme Inhibition and Medicinal Chemistry, 2021).
